Experimental data published in patent US12655174B2, “Adenosine A3 receptor agonists, preparation methods and uses thereof” (ZHEJIANG VIMGREEN PHARMACEUTICALS, LTD., priority 2020, dated 2026).

Key:
[1] = Pharmacokinetic test of compound in SD rat; type: in vivo; conditions: SD rats, intragastric administration (IG), cassette dosing
Description: Example 28: Pharmacokinetic Test of Compound in SD Rat
The animal species used in this experiment were SD rats. There were 3 animals per group. The rats were dosed in cassette format, i.e., multiple (1-6) different compounds were dosed simultaneously to the same group of the SD rats. The vehicle used for the drug was 5% DMSO+5% Solutl+90% ([…] methylcellulose M450), and the administration route was intragastric administration (IG).

[2] = target: T1, ADORA3 receptor (CHO cells stably expressing ADORA3 receptor) (Homo sapiens, UniProt P0DMS8); test: Effect of compound on intracellular cAMP level by adenosine A3 receptor agonism; type: cell-based; conditions: forskolin-stimulated
T1 construct: expressed in transfected cells
T1 sequence (P0DMS8 1-318): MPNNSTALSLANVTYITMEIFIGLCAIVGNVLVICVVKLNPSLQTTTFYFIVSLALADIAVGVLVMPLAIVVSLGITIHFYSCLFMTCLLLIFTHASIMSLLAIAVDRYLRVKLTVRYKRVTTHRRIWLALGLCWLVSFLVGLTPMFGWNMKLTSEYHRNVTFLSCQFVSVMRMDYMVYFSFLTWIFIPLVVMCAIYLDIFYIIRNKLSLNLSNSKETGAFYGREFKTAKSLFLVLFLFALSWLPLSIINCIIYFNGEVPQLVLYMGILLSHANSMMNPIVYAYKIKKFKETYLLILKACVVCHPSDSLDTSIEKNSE
How it was run: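 Agonism read as change in forskolin-stimulated cAMP by TR-FRET competition (Eu-cAMP tracer, ULight anti-cAMP antibody). Compound tested as 10 three-fold dilutions on ADORA3-CHO cells in buffer containing rolipram, incubated at 37 °C. Hill fit of % activation against log concentration gives EC50.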

ADORA3 receptor = target: T2, ADORA3 receptor (Homo sapiens, UniProt P0DMS8); test: Agonistic effect on adenosine A3 receptor by FLIPR assay (calcium flux assay); type: cell-based; conditions: agonist mode
T2 sequence (P0DMS8 1-318): T1 sequence (P0DMS8 1-318)
Description: Example 27: Agonistic Effect of Compound on Adenosine A3 Receptor by FLIPR Assay (Calcium Flux Assay)
First Day: Cell Inoculation
• 1) With regard to ADORA3 receptor, cultured cells were used for inoculation: the culture medium was aspirated and the cells were washed twice with 10 mL of DPBS. 2 mL of 0.05% EDTA-trypsin was added and the cells were incubated at 37° C. for 1 minute. Then 10 mL of the culture medium was added to stop the digestion and the cell suspension was transferred to a 50-mL tapered tube. • 2) The 50-mL tapered tube containing the various cells was centrifuged at 300 g for 5 minutes. • 3) A supernatant was aspirated and no cells should be aspirated. • 4) The cell precipitate was resuspended in 6-8 mL of the culture medium, and then 0.5 mL of the cells were taken out for cell counting by using a Vi-cell XR cell viability analyzer. • 5) The cell suspension was diluted to 1×10^6 cells/mL (20 μL of 20,000 cells per well) in the culture medium and the cells were inoculated into a cell plate (384-well Poly-D-lysine protein-coated plate, Greiner-781946). • 6) The plate was placed in a 37° C./5% CO2 incubator for 16-20 hours. Second Day: • 1) Preparation of 2×Fluo-4 Direct™ uptaking dye • a. Preparation of probenecid solution • 1 mL of FLIPR assay buffer was added to 77 mg of probenecid (provided by Fluo-4 Direct™ calcium assay kit) to be prepared into 250 mM of a probenecid solution. The fresh probenecid solution was used daily. • b. 2×(8 μM) Fluo-4 Direct™ loading dye (per 10 mL)
A vial of the Fluo-4 Direct™ crystal was thawed and then 10 mL of the FLTPR analytical buffer was added to the vial. Then 0.2 mL of 250 mM of a probe solution was added to every 10 mL Fluo-4 Direct™ crystal to a final assay concentration of 2.5 mM. The solution was vortexed and stood for >5 min at a dark place. 2×Fluo-4 Direct™ uptaking dye was freshly prepared daily. • 2) Compound preparation • a. Preparation of compound plate: all reference and test compounds were serially diluted 4-fold in 10 points by using an Echo liquid processor and then 900 nL of the diluted compounds were transferred to a compound plate. • b. 30 μL FLIPR analytical buffer was added to the compound plate and the plate was centrifuged at 300 g for 1 minute. • 3) FLIPR analysis • a. With regard to ADORA3 receptor: firstly, the cell plate was taken out from a culture box. The culture medium was then aspirated and 20 μL of the FLIPR analytical buffer was added. The cell plate was placed in an incubator for 45 minutes and at a room temperature for 15 minutes. • b. To run an experimental solution on […], 10 μL of the FLIPR analytical buffer was transferred from the compound plate to a cell plate, and then the fluorescent signal was read. Then 10 μL of a compound solution was transferred from the compound plate to the cell plate and the fluorescence signal was read. “Max−min” was calculated from Reader 91 to an allowed maximum value. • c. With regard to agonist: activation %=(RLU−LC)/(HC−LC)*100, • wherein RLU=relative light unit, allowed maximum signal was 91; HC=average signal of high concentration agonist; and LC=mean signal of DMSO well. • d. Data were fitted to a model “log (agonist) versus response-variable slope” by using GraphPad Prism 5 to determine an EC50 value. • e. […] 2. Test Result

| SMILES | AUC_D [1] | EC50 [2] | EC50 (ADORA3 receptor) |
| --- | --- | --- | --- |
| CNC(=O)[C@H]1O[C@@H](n2cnc3c(NCc4cccc(C)n4)nc(-c4cncc(F)c4)nc32)[C@H](O)[C@@H]1O [compound 106] | 521.57 kg·ng·h/mL/mg | 3.02 nM | 17.6 nM |
| CNC(=O)[C@H]1O[C@@H](n2cnc3c(NCc4cccc(C)n4)nc(-c4cncc(Cl)c4)nc32)[C@H](O)[C@@H]1O [compound 112] | 1790.18 kg·ng·h/mL/mg | 3.53 nM | 44.4 nM |
| CNC(=O)[C@H]1O[C@@H](n2cnc3c(NCc4cccc(OC)n4)nc(-c4cncc(Cl)c4)nc32)[C@H](O)[C@@H]1O [compound 159] | – | 4.42 nM | 59.3 nM |
| CNC(=O)[C@H]1O[C@@H](n2cnc3c(NCc4cc(C)ccc4Cl)nc(-c4cncc(Cl)c4)nc32)[C@H](O)[C@@H]1O [compound 177, (2S,3S,4R,5R)-5-(6-(2-chloro-5-methylbenzylamino)-2-(5-chloropyridin-3-yl)-9H-purin-9-yl)-3,4-dihydroxyl-N-methyl-tetrahydrofuran-2-formamide] | 5247.70 kg·ng·h/mL/mg | 2.08 nM | 70.3 nM |
| CNC(=O)[C@H]1O[C@@H](n2cnc3c(NCc4cc(Cl)ccn4)nc(-c4cncc(Cl)c4)nc32)[C@H](O)[C@@H]1O [compound 184, (2S,3S,4R,5R)-5-(6-((4-chloropyridin-2-yl)methylamino)-2-(5-chloropyridin-3-yl)-9H-purin-9-yl)-3,4-dihydroxyl-N-methyl-tetrahydrofuran-2-formamide] | – | < 0.51 nM | 13 nM |
| CNC(=O)[C@H]1O[C@@H](n2cnc3c(NCc4cc(C)ccn4)nc(-c4cccnc4)nc32)[C@H](O)[C@@H]1O [compound 186, (2S,3S,4R,5R)-3,4-dihydroxyl-N-methyl-5-(6-((4-methylpyridin-2-yl)methylamino)-2-(pyridin-3-yl)-9H-purin-9-yl)-tetrahydrofuran-2-formamide] | 786.27 kg·ng·h/mL/mg | < 0.51 nM | 11.8 nM |
| CNC(=O)[C@H]1O[C@@H](n2cnc3c(NCc4cc(C)ccc4F)nc(-c4cncc(Cl)c4)nc32)[C@H](O)[C@@H]1O [compound 226, (2S,3S,4R,5R)-5-(2-(5-chloropyridin-3-yl)-6-((2-fluoro-5-methylbenzyl)amino)-9H-purin-9-yl)-3,4-dihydroxyl-N-methyltetrahydrofuran-2-carboxamide] | 20055.61 kg·ng·h/mL/mg | 1.2 nM | 33.5 nM |
| [2H]C([2H])([2H])NC(=O)[C@H]1O[C@@H](n2cnc3c(NCc4ccco4)nc(-c4cncc(Cl)c4)nc32)[C@H](O)[C@@H]1O [compound 256, (2S,3S,4R,5R)-5-(2-(5-chloropyridin-3-yl)-6-((furan-2-ylmethyl)amino)-9H-purin-9-yl)-3,4-dihydroxyl-N-(methyl-d3)tetrahydrofuran-2-carboxamide] | 706.00 kg·ng·h/mL/mg | 11.6 nM | 98.5 nM |
| CNC(=O)[C@H]1O[C@@H](n2cnc3c(NCc4cc(OC)ccn4)nc(-c4cncc(Cl)c4)nc32)[C@H](O)[C@@H]1O [compound 296, (2S,3S,4R,5R)-5-(2-(5-chloropyridin-3-yl)-6-(((4-methoxypyridin-2-yl)methyl)amino)-9H-purin-9-yl)-3,4-dihydroxyl-N-methyltetrahydrofuran-2-carboxamide] | – | 1.28 nM | 53.6 nM |

Stronger by EC50 (ADORA3 receptor), values ahead:

| AUC_D [1] | EC50 [2] | EC50 (ADORA3 receptor) | SMILES |
| --- | --- | --- | --- |
| 161.47 kg·ng·h/mL/mg | 2.73 nM | 10.9 nM | CNC(=O)[C@H]1OC(n2cnc3c(NCc4ccccn4)nc(-c4cncc(F)c4)nc32)[C@H](O)[C@@H]1O (stereo in doubt) [compound 305, (2S,3S,4R,5S)-5-(2-(5-fluoropyridin-3-yl)-6-((pyridin-2-ylmethyl)amino)-9H-purin-9-yl)-3,4-dihydroxyl-N-methyltetrahydrofuran-2-carboxamide] |
| 757.44 kg·ng·h/mL/mg | < 0.51 nM | 1.93 nM | CNC(=O)[C@H]1O[C@@H](n2cnc3c(NCc4cc(C)ccn4)nc(-c4cncc(F)c4)nc32)[C@H](O)[C@@H]1O [compound 71, (2S,3S,4R,5R)-5-(2-(5-fluoropyridin-3-yl)-6-(((4-methylpyridin-2-yl)methyl)amino)-9H-purin-9-yl)-3,4-dihydroxyl-N-methyltetrahydrofuran-2-carboxamide] |
| 947.63 kg·ng·h/mL/mg | < 0.51 nM | 9.07 nM | CNC(=O)[C@H]1O[C@@H](n2cnc3c(NCc4cc(Cl)ccn4)nc(-c4cncc(F)c4)nc32)[C@H](O)[C@@H]1O [compound 183, (2S,3S,4R,5R)-5-(6-((4-chloropyridin-2-yl)methylamino)-2-(5-fluoropyridin-3-yl)-9H-purin-9-yl)-3,4-dihydroxyl-N-methyl-tetrahydrofuran-2-formamide] |
| 2043.13 kg·ng·h/mL/mg | – | 10.7 nM | CNC(=O)[C@H]1O[C@@H](n2cnc3c(NCc4cc(C)ccc4F)nc(-c4cncc(OC)c4)nc32)[C@H](O)[C@@H]1O [compound 194, (2S,3S,4R,5R)-5-(6-(2-fluoro-5-methylbenzylamino)-2-(5-methoxypyridin-3-yl)-9H-purin-9-yl)-3,4-dihydroxyl-N-methyl-tetrahydrofuran-2-formamide] |
| 233.07 kg·ng·h/mL/mg | – | 3.53 nM | CNC(=O)[C@H]1O[C@@H](n2cnc3c(NCc4cccc(Cl)n4)nc(-c4cncc(F)c4)nc32)[C@H](O)[C@@H]1O [compound 227, (2S,3S,4R,5R)-5-(6-(((6-chloropyridin-2-yl)methyl)amino)-2-(5-fluoropyridin-3-yl)-9H-purin-9-yl)-3,4-dihydroxyl-N-methyltetrahydrofuran-2-carboxamide] |
| 17240.04 kg·ng·h/mL/mg | – | 11.2 nM | CNC(=O)[C@H]1O[C@@H](n2cnc3c(NCc4cc(C)cc(C)c4)nc(-c4cncc(C)c4)nc32)[C@H](O)[C@@H]1O [compound 231, (2S,3S,4R,5R)-5-(6-((3,5-dimethylbenzyl)amino)-2-(5-methylpyridin-3-yl)-9H-purin-9-yl)-3,4-dihydroxyl-N-methyltetrahydrofuran-2-carboxamide] |
| 2016.46 kg·ng·h/mL/mg | < 0.51 nM | 3.27 nM | CNC(=O)[C@H]1O[C@@H](n2cnc3c(NCc4cc(C)ccn4)nc(-c4cncc(Cl)c4)nc32)[C@H](O)[C@@H]1O [compound 293, (2S,3S,4R,5R)-5-(2-(5-chloropyridin-3-yl)-6-(((4-methylpyridin-2-yl)methyl)amino)-9H-purin-9-yl)-3,4-dihydroxyl-N-methyltetrahydrofuran-2-carboxamide] |
